Results taken from patent publication US20090253712A1, “AQUEOUS SOLVENT SYSTEM FOR SOLUBILIZATION OF AZOLE COMPOUNDS” (SEMMELWEIS EGYETEM, priority 2008, published 2009).
In brackets after ≈: the same amount, converted by molar mass. Where two headings read alike, the source gives them in different places.

Legend:
[1] = Solubility tests of active agent in solvent systems; assay type: physicochemical; settings: for solubility: thermodynamic from solid; for Solubility in the compositions of Table 5 (in words): 3% surfactant, 25% co-solvent and pH adjuster (pH 3.1); for Solubilized miconazole / ketoconazole / itraconazole ± S.D.: Table 5: 1.5% sodium taurocholeate + 1.5% polysorbate 80 + 15% ethanol + 10% propylene glycol + ammonium acetate pH 3.1
Description: General example for the solubility tests
Each of the solutions applied in the solubilization tests were prepared as follows (the specific amount of the components comes from the Tables below):
1. 0.05M ammonium acetate (as pH-adjuster) solution was prepared in a volumetric flask and the pH of this solution was set to pH 3.1 with glacial acetic acid.
2. The specific amount of co-solvent was measured into a beaker and the specific amount of the previously prepared 0.05M ammonium acetate solution was added. The pH of this solution was measured and set to pH 3.1 with glacial acetic acid.
3. The specific amount of surfactant was added to the solution.
4. This solvent system was vigorously shaken until complete homogenization of the solution was achieved.
5. Aliquot amount of this solvent system was measured and the specific amount of the active agent was added to the solution.
The Tables below define the composition of each solution tested and the amount of the active agent which could be solubilized by the applied solvent system.
The amount of the co-solvent is given in % by volume and the amount of the surfactant is given in % by weight in each table.

[2] = data from U.S. Pat. No. 6,383,471, cited from earlier work
[3] = Stability on dilution with infusions; assay type: physicochemical; settings: for Concentration of polysorbate 80 necessary to keep miconazole in solution on dilution: co-solvent 20% ethanol + ammonium acetate, pH 3.1, dilution to 200 ml with 5% dextrose or 0.9% sodium chloride infusions
Description: A composition called as “concentrate for infusion” should be diluted before administration to patients by a previously determined amount of usual infusion. The usual infusion is chosen preferably from the group of 5% dextrose infusion and 0.9% sodium chloride infusion. It is well known for a skilled person in the art that such a dilute should be stable for at least 48 hours. To reproduce the dilution scheme applied in the case of Monistat® (previously marketed as a concentrate for infusion containing miconazole), one of the compositions of the present invention was diluted with 5% dextrose infusion and 0.9% sodium chloride infusion. Based on the previous results a composition comprising of 0.1% polysorbate 80, 20% ethanol and ammonium acetate pH 3.1 was chosen for further investigation. […]

[4] = 3% polysorbate 80 + 25% ethanol + ammonium acetate pH 3.1, pH 3.1, aqueous with cosolvent or surfactant or cyclodextrin, Table 5: 3% polysorbate 80 + 25% ethanol + ammonium acetate pH 3.1, read-out: Solubilized miconazole / ketoconazole / itraconazole ± S.D.
[5] = aqueous with cosolvent or surfactant or cyclodextrin, Table 5: 1.5% sodium taurocholeate + 1.5% polysorbate 80 + 15% ethanol + 10% PEG 400 + ammonium acetate pH 3.1, read-out: Solubilized miconazole / ketoconazole / itraconazole ± S.D.
[6] = pH 3.1, aqueous with cosolvent or surfactant or cyclodextrin, Table 5: 1.5% sodium taurocholeate + 1.5% polysorbate 80 + 25% ethanol + ammonium acetate pH 3.1, read-out: Solubilized miconazole / ketoconazole / itraconazole ± S.D.
[7] = pH 3.1, aqueous with cosolvent or surfactant or cyclodextrin, Table 5: 3% polysorbate 80 + 15% ethanol + 10% PEG 400 + ammonium acetate pH 3.1, read-out: Solubilized miconazole / ketoconazole / itraconazole ± S.D.
[8] = pH 3.1, aqueous with cosolvent or surfactant or cyclodextrin, Table 5: 3% polysorbate 80 + 15% ethanol + 10% propylene glycol + ammonium acetate pH 3.1, read-out: Solubilized miconazole / ketoconazole / itraconazole ± S.D.

## CCC(C)n1ncn(-c2ccc(N3CCN(c4ccc(OCC5COC(Cn6cncn6)(c6ccc(Cl)cc6Cl)O5)cc4)CC3)cc2)c1=O (centres unmarked) [itraconazole]
[1]; [4]
  solubility: 0.057 ± 0.005 mg/mL
[1]
  Solubility in the compositions of Table 5 (in words): no substantial solubility
  Solubilized miconazole / ketoconazole / itraconazole ± S.D.: 0.026 ± 0.001 mg/mL
[1]; [5]
  solubility: 0.04 ± 0.001 mg/mL
[1]; [6]
  solubility: 0.04 ± 0.008 mg/mL
[1]; [7]
  solubility: 0.054 ± 0.002 mg/mL
[1]; [8]
  solubility: 0.04 ± 0.001 mg/mL
[2]; solvent system of Example 27
  Solubilized itraconazole: 85 mg/mL
[2]; solvent system of Example 28
  Solubilized itraconazole: 50 mg/mL
[2]; solvent system of Example 29
  Solubilized itraconazole: 50 mg/mL
[2]; solvent system of Example 30
  Solubilized itraconazole: 30 mg/mL
[2]; solvent system of Example 31
  Solubilized itraconazole: 30 mg/mL

## Clc1ccc(COC(Cn2ccnc2)c2ccc(Cl)cc2Cl)c(Cl)c1 (centres unmarked) [miconazole]
[1]; 0.05 M ammonium acetate in water, pH 3.1, aqueous buffer, 0.05 M ammonium acetate pH 3.1 in water, read-out: Solubilized miconazole ± S.D.
  solubility: 2.24 ± 0.36 mg/mL (≈ 5380 µM)
[1]; 0.05 M calcium gluconate in water, pH 3.1, aqueous buffer, 0.05 M calcium gluconate pH 3.1 in water, read-out: Solubilized miconazole ± S.D.
  solubility: 0.65 ± 0.06 mg/mL (≈ 1560 µM)
[1]; 0.05 M potassium dihydrogen phosphate in water, pH 3.1, aqueous buffer, 0.05 M potassium dihydrogen phosphate pH 3.1 in water, read-out: Solubilized miconazole ± S.D.
  solubility: 0.77 ± 0.05 mg/mL (≈ 1850 µM)
[1]; 0.10% polysorbate 80 + 5% ethanol + ammonium acetate pH 3.1, pH 3.1, aqueous with cosolvent or surfactant or cyclodextrin, Table 3: 0.10% polysorbate 80 + 5% ethanol + ammonium acetate pH 3.1, read-out: Solubilized miconazole ± S.D.
  solubility: 2.39 ± 0.12 mg/mL
[1]; 0.1% polysorbate 80 + 10% ethanol + ammonium acetate pH 3.1, pH 3.1, aqueous with cosolvent or surfactant or cyclodextrin, Table 3: 0.1% polysorbate 80 + 10% ethanol + ammonium acetate pH 3.1, read-out: Solubilized miconazole ± S.D.
  solubility: 4.52 ± 0.03 mg/mL
[1]; 0.1% polysorbate 80 + 15% ethanol + ammonium acetate pH 3.1, pH 3.1, aqueous with cosolvent or surfactant or cyclodextrin, Table 3: 0.1% polysorbate 80 + 15% ethanol + ammonium acetate pH 3.1, read-out: Solubilized miconazole ± S.D.
  solubility: 10.8 ± 2.84 mg/mL
[1]; 0.1% polysorbate 80 + 20% ethanol + ammonium acetate pH 3.1, pH 3.1, aqueous with cosolvent or surfactant or cyclodextrin, Table 3: 0.1% polysorbate 80 + 20% ethanol + ammonium acetate pH 3.1, read-out: Solubilized miconazole ± S.D.
  solubility: 35.1 ± 5.76 mg/mL
[1]; 0.10% polysorbate 80 + 25% ethanol + ammonium acetate pH 3.1, pH 3.1, aqueous with cosolvent or surfactant or cyclodextrin, Table 2: 0.10% polysorbate 80 + 25% ethanol + ammonium acetate pH 3.1, read-out: Solubilized miconazole ± S.D.
  solubility: 36 ± 2.09 mg/mL
[1]; 0.1% polysorbate 80 + 25% ethanol + ammonium acetate pH 3.1, pH 3.1, aqueous with cosolvent or surfactant or cyclodextrin, Table 3: 0.1% polysorbate 80 + 25% ethanol + ammonium acetate pH 3.1, read-out: Solubilized miconazole ± S.D.
  solubility: 36 ± 1.49 mg/mL
[1]; 0.25% polysorbate 80 + 25% ethanol + ammonium acetate pH 3.1, pH 3.1, aqueous with cosolvent or surfactant or cyclodextrin, Table 2: 0.25% polysorbate 80 + 25% ethanol + ammonium acetate pH 3.1, read-out: Solubilized miconazole ± S.D.
  solubility: 34.4 ± 1.51 mg/mL
[1]; 0.50% polysorbate 80 + 25% ethanol + ammonium acetate pH 3.1, pH 3.1, aqueous with cosolvent or surfactant or cyclodextrin, Table 2: 0.50% polysorbate 80 + 25% ethanol + ammonium acetate pH 3.1, read-out: Solubilized miconazole ± S.D.
  solubility: 44.72 ± 0.14 mg/mL
[1]; 1.0% polysorbate 80 + 25% ethanol + ammonium acetate pH 3.1, pH 3.1, aqueous with cosolvent or surfactant or cyclodextrin, Table 2: 1.0% polysorbate 80 + 25% ethanol + ammonium acetate pH 3.1, read-out: Solubilized miconazole ± S.D.
  solubility: 42.6 ± 2.04 mg/mL
[1]; 2.0% polysorbate 80 + 25% ethanol + ammonium acetate pH 3.1, pH 3.1, aqueous with cosolvent or surfactant or cyclodextrin, Table 2: 2.0% polysorbate 80 + 25% ethanol + ammonium acetate pH 3.1, read-out: Solubilized miconazole ± S.D.
  solubility: 37.9 ± 1.86 mg/mL
[1]; 3% polysorbate 20 in water, aqueous with cosolvent or surfactant or cyclodextrin, 3% polysorbate 20 in water, read-out: Solubilized miconazole ± S.D.
  solubility: 0.81 ± 0.07 mg/mL (≈ 1950 µM)
[1]; 3% polysorbate 60 in water, aqueous with cosolvent or surfactant or cyclodextrin, 3% polysorbate 60 in water, read-out: Solubilized miconazole ± S.D.
  solubility: 1.42 ± 0.1 mg/mL (≈ 3410 µM)
[1]; 3.0% polysorbate 80 + 25% ethanol + ammonium acetate pH 3.1, pH 3.1, aqueous with cosolvent or surfactant or cyclodextrin, Table 2: 3.0% polysorbate 80 + 25% ethanol + ammonium acetate pH 3.1, read-out: Solubilized miconazole ± S.D.
  solubility: 38.9 ± 0.61 mg/mL
[1]; [4]
  solubility: 34.1 ± 2.95 mg/mL
[1]; 3% polysorbate 80 in water, aqueous with cosolvent or surfactant or cyclodextrin, 3% polysorbate 80 in water, read-out: Solubilized miconazole ± S.D.
  solubility: 1.52 ± 0.09 mg/mL (≈ 3650 µM)
[1]
  Solubility in the compositions of Table 5 (in words): remarkable solubility
  Solubilized miconazole / ketoconazole / itraconazole ± S.D.: 38.38 ± 1.53 mg/mL
[1]; 4.0% polysorbate 80 + 25% ethanol + ammonium acetate pH 3.1, pH 3.1, aqueous with cosolvent or surfactant or cyclodextrin, Table 2: 4.0% polysorbate 80 + 25% ethanol + ammonium acetate pH 3.1, read-out: Solubilized miconazole ± S.D.
  solubility: 43.3 ± 2.61 mg/mL
[1]; 5.0% polysorbate 80 + 25% ethanol + ammonium acetate pH 3.1, pH 3.1, aqueous with cosolvent or surfactant or cyclodextrin, Table 2: 5.0% polysorbate 80 + 25% ethanol + ammonium acetate pH 3.1, read-out: Solubilized miconazole ± S.D.
  solubility: 42.7 ± 0.81 mg/mL
[1]; 25% ethanol in water, aqueous with cosolvent or surfactant or cyclodextrin, 25% ethanol in water, read-out: Solubilized miconazole ± S.D.
  solubility: 0.021 ± 0.01 mg/mL (≈ 50.5 µM)
[1]; 30% glycerol in water, aqueous with cosolvent or surfactant or cyclodextrin, 30% glycerol in water, read-out: Solubilized miconazole ± S.D.
  solubility: 0.024 ± 0.006 mg/mL (≈ 57.7 µM)
[1]; 30% macrogol 400 in water, aqueous with cosolvent or surfactant or cyclodextrin, 30% macrogol 400 in water, read-out: Solubilized miconazole ± S.D.
  solubility: 0.022 ± 0.008 mg/mL (≈ 52.9 µM)
[1]; 60% propylene glycol in water, aqueous with cosolvent or surfactant or cyclodextrin, 60% propylene glycol in water, read-out: Solubilized miconazole ± S.D.
  solubility: 0.36 ± 0.12 mg/mL (≈ 865 µM)
[1]; [5]
  solubility: 34.8 ± 2.36 mg/mL
[1]; [6]
  solubility: 32.1 ± 2.86 mg/mL
[1]; [7]
  solubility: 22 ± 1.62 mg/mL
[1]; [8]
  solubility: 10.7 ± 0.69 mg/mL
[3]; 10 mg/ml miconazole in composition
  Concentration of polysorbate 80 necessary to keep miconazole in solution on dilution: 0.1%^
[3]; 20 mg/ml miconazole in composition
  Concentration of polysorbate 80 necessary to keep miconazole in solution on dilution: 3%
[3]; 30 mg/ml miconazole in composition
  Concentration of polysorbate 80 necessary to keep miconazole in solution on dilution: 3%
[3]; 10 ml of 0.1% polysorbate 80, 20% ethanol, ammonium acetate pH 3.1 containing 20 mg/ml miconazole, diluted to 200 ml with 5% dextrose or 0.9% sodium chloride infusion
  Stability of diluted composition: not stable for 48 hours

## CC(=O)N1CCN(c2ccc(OCC3COC(Cn4ccnc4)(c4ccc(Cl)cc4Cl)O3)cc2)CC1 (centres unmarked) [ketoconazole]
[1]; [4]
  solubility: 139 ± 4.05 mg/mL
[1]
  Solubility in the compositions of Table 5 (in words): best solubility
  Solubilized miconazole / ketoconazole / itraconazole ± S.D.: 126.54 ± 1.04 mg/mL
[1]; [5]
  solubility: 142 ± 2.85 mg/mL
[1]; [6]
  solubility: 137 ± 8.15 mg/mL
[1]; [7]
  solubility: 140 ± 3.99 mg/mL
[1]; [8]
  solubility: 124.7 ± 1.16 mg/mL
